{
  "source": "paper PMC11480511",
  "about": "(Scientific Reports, 2024)",
  "assay_type_in_all_cases": "cell-based, human",
  "key": {"[1]": {"system": "melanoma LOX IMVI cell line", "experiment": "Cell cycle analysis, propidium iodide flow cytometry", "method": "The effect of compound 3i on cell cycle progression of LOX IMVI cell line was evaluated using Propidium Iodide Flow Cytometry Kit to measure the DNA content according to the reported protocols. The LOX IMVI cells used in this work were obtained from the American Type Culture Collection. Cells were cultured in DMEM (Invitrogen/Life Technologies) supplemented with 10% FBS (Hyclone), 10 µg/ml insulin (Sigma), and 1% penicillin-streptomycin. The remaining chemicals and reagents were all from Sigma or Invitrogen. Growth media was removed, cells washed with warm PBS and aspirated. Adhered cells were detached from media by addition of 5 ml 10% trypsin/EDTA and incubated 2 min in the incubator. The suspended cells harvested, aspirated to a falcon tube, centrifuged at 2000 rpm for 5 min. Cell count performed after suspending the cells into a fresh media and stained with trypan blue, counted and used for preparation of the appropriate number of cells."}, "[2]": {"system": "Bax", "experiment": "Western blot of protein expression in LOX IMVI cells", "settings": "control = 1", "method": "(§1) To evaluate the expression level of the apoptosis modulatory markers Bax, caspase 3 and PARP-1, western blot was performed as formerly described. Three different groups of LOX IMVI cells were permitted to grow to reach 70–80% confluence in […] flasks. The first group of LOX IMVI cells was treated with compound 3i. […] The media was taken out after 48 h, and cells underwent three rounds of ice-cold PBS washing. RIPA lysis buffer [consisting of Tris-HCl pH 7.6 (25 mM), NaCl (150 mM), EDTA (5 mM), NP-40 or Triton X-100 (1%), sodium deoxycholate (1%), SDS1 (1%)] with the proper phosphatase and a protease inhibitor was used to create the whole-cell lysate for 30 min. After centrifuging the mixture at 12,000 rpm for 20 min and sonicating it for five minutes, the supernatant was collected, split into aliquots, and kept at -80 °C. The Biuret method was used to determine protein content[27],[28]. Proteins in each matched cell lysate were denatured in 2 Laemmli buffer containing 5% β--mercaptoethanol at 95 °C for 5 min. For SDS-PAGE electrophoresis, 20 µg of protein per lane were loaded at 100 volts through a 6% stacking gel, then at 125 volts through a 10% resolving gel for around 2 h, and then transferred to a PVDF membrane using a semidry transfer apparatus (made by Cleaver Scientific) for 25 min. The PVDF membrane was first incubated for one hour at 4 °C in TBS buffer containing 0.1% Tween (TBST) and 5% fat-free milk, then overnight at 4 °C with monoclonal anti-Bax, anti-PARP-1, and anti-caspase-3 as primary antibodies (Cell Signalling Technology) at a dilution of 1:500. Membranes were first treated overnight, then three times washed in TBST buffer, then incubated at room temperature for 60 min with the corresponding HRP (horse radish peroxidase)-linked secondary antibodies (Dako). Then the substrate for the chemiluminescent Western ECL (Perkin Elmer, Waltham, MA) was added to the blot as described by the manufacturer by incubating the membranes with equal volumes of ECL solution A and ECL solution B for 1 min."}, "[3]": {"system": "active caspase-3", "experiment": "Western blot of protein expression in LOX IMVI cells", "settings": "control = 1", "method": "as §1"}, "[4]": {"system": "PARP-1", "experiment": "Western blot of protein expression in LOX IMVI cells", "settings": "control = 1", "method": "as §1"}, "[5]": {"settings": "LOX IMVI treated at IC50 concentration"}},
  "data": [
    {"compound": "O=C(O)c1cn(C2CC2)c2cc(N3CCN(C(=O)CCCN4C(=O)S/C(=C\\c5ccc(F)cc5)C4=O)CC3)c(F)cc2c1=O", "note": "[3i]", "values": [
      {"measurement": "%G0-G1 DNA content", "setting": "[1]; [5]", "result": 45.53, "unit": "%"},
      {"measurement": "%G2/M DNA content", "setting": "[1]; [5]", "result": 9.41, "unit": "%"},
      {"measurement": "%Pre-G1 DNA content", "setting": "[1]; [5]", "result": 38.51, "unit": "%"},
      {"measurement": "%S DNA content", "setting": "[1]; [5]", "result": 45.06, "unit": "%"},
      {"measurement": "increase of percentage of cells at pre-G1", "setting": "[1]; LOX IMVI, versus control", "result": 20, "unit": "folds"},
      {"measurement": "Bax OD", "setting": "[2]", "result": 4.13},
      {"measurement": "Caspace-3 Optical density (OD)", "setting": "[3]", "result": 3.14},
      {"measurement": "PARP-1 OD", "setting": "[4]", "result": 0.87}
    ]}
  ]
}
